What was measured:
Type in all cases: functional
COLO 205 [1] = experiment: Growth inhibition of human COLO205 cells by sulforhodamine B assay
SR = experiment: Growth inhibition of human SR cells by sulforhodamine B assay
IGROV-1 = experiment: Growth inhibition of human IGROV1 cells assessed as cell growth at 10^-8 M by sulforhodamine B assay; details: read-out: Activity
HT-29 = experiment: Growth inhibition of human HT-29 cells assessed as cell growth at 10^-8 M by sulforhodamine B assay; details: read-out: Activity
HCT-15 [2] = experiment: Growth inhibition of human HCT15 cells assessed as cell growth at 10^-8 M by sulforhodamine B assay; details: read-out: Activity
A549 [3] = experiment: Growth inhibition of human A549/ATCC cells assessed as cell growth at 10^-8 M by sulforhodamine B assay; details: read-out: Activity
[4] = Growth inhibition of human NCI-ADR-RES cells by sulforhodamine B assay
OVCAR-8 [5] = experiment: Growth inhibition of human OVCAR8 cells by sulforhodamine B assay
UACC-257 [6] = experiment: Growth inhibition of human UACC257 cells by sulforhodamine B assay
MDA-MB-435 = experiment: Growth inhibition of human MDA-MB-435 cells by sulforhodamine B assay
MDA-MB-468 = experiment: Growth inhibition of human MDA-MB-468 cells assessed as cell growth at 10^-4 M by sulforhodamine B assay; details: read-out: Activity
MCF7 [7] = experiment: Growth inhibition of human MCF7 cells assessed as cell growth at 10^-4 M by sulforhodamine B assay; details: read-out: Activity
SN12C [8] = experiment: Growth inhibition of human SN12C cells assessed as cell growth at 10^-4 M by sulforhodamine B assay; details: read-out: Activity
CAKI-1 = experiment: Growth inhibition of human CAKI-1 cells assessed as cell growth at 10^-4 M by sulforhodamine B assay; details: read-out: Activity
SNB-75 = experiment: Growth inhibition of human SNB75 cells assessed as cell growth at 10^-4 M by sulforhodamine B assay; details: read-out: Activity
SNB-19 = experiment: Growth inhibition of human SNB19 cells assessed as cell growth at 10^-4 M by sulforhodamine B assay; details: read-out: Activity
SW-620 = experiment: Growth inhibition of human SW620 cells assessed as cell growth at 10^-4 M by sulforhodamine B assay; details: read-out: Activity
KM12 [9] = experiment: Growth inhibition of human KM12 cells assessed as cell growth at 10^-4 M by sulforhodamine B assay; details: read-out: Activity
NCI-H322M = experiment: Growth inhibition of human NCI-H322M cells assessed as cell growth at 10^-4 M by sulforhodamine B assay; details: read-out: Activity
HOP-92 [10] = experiment: Growth inhibition of human HOP92 cells assessed as cell growth at 10^-4 M by sulforhodamine B assay; details: read-out: Activity
PC-3 [11] = experiment: Growth inhibition of human PC3 cells assessed as cell growth at 10^-6 M by sulforhodamine B assay; details: read-out: Activity
ACHN [12] = experiment: Growth inhibition of human ACHN cells assessed as cell growth at 10^-6 M by sulforhodamine B assay; details: read-out: Activity
OVCAR-8 [13] = experiment: Growth inhibition of human OVCAR8 cells assessed as cell growth at 10^-6 M by sulforhodamine B assay; details: read-out: Activity
UACC-62 = experiment: Growth inhibition of human UACC62 cells assessed as cell growth at 10^-6 M by sulforhodamine B assay; details: read-out: Activity
UACC-257 [14] = experiment: Growth inhibition of human UACC257 cells assessed as cell growth at 10^-6 M by sulforhodamine B assay; details: read-out: Activity
SK-MEL-28 = experiment: Growth inhibition of human SK-MEL-28 cells assessed as cell growth at 10^-6 M by sulforhodamine B assay; details: read-out: Activity
SF-295 = experiment: Growth inhibition of human SF295 cells assessed as cell growth at 10^-6 M by sulforhodamine B assay; details: read-out: Activity
KM12 [15] = experiment: Growth inhibition of human KM12 cells assessed as cell growth at 10^-6 M by sulforhodamine B assay; details: read-out: Activity
NCI-H226 = experiment: Growth inhibition of human NCI-H226 cells assessed as cell growth at 10^-6 M by sulforhodamine B assay; details: read-out: Activity
HOP-92 [16] = experiment: Growth inhibition of human HOP92 cells assessed as cell growth at 10^-6 M by sulforhodamine B assay; details: read-out: Activity
K562 = experiment: Growth inhibition of human K562 cells assessed as cell growth at 10^-6 M by sulforhodamine B assay; details: read-out: Activity
TK-10 = experiment: Growth inhibition of human TK10 cells assessed as cell growth at 10^-7 M by sulforhodamine B assay; details: read-out: Activity
SN12C [17] = experiment: Growth inhibition of human SN12C cells assessed as cell growth at 10^-7 M by sulforhodamine B assay; details: read-out: Activity
ACHN [18] = experiment: Growth inhibition of human ACHN cells assessed as cell growth at 10^-7 M by sulforhodamine B assay; details: read-out: Activity
SF-268 = experiment: Growth inhibition of human SF268 cells assessed as cell growth at 10^-7 M by sulforhodamine B assay; details: read-out: Activity
HCT-116 = experiment: Growth inhibition of human HCT116 cells assessed as cell growth at 10^-7 M by sulforhodamine B assay; details: read-out: Activity
HCT-15 [19] = experiment: Growth inhibition of human HCT15 cells assessed as cell growth at 10^-7 M by sulforhodamine B assay; details: read-out: Activity
COLO 205 [20] = experiment: Growth inhibition of human COLO205 cells assessed as cell growth at 10^-7 M by sulforhodamine B assay; details: read-out: Activity
NCI-H460 = experiment: Growth inhibition of human NCI-H460 cells assessed as cell growth at 10^-7 M by sulforhodamine B assay; details: read-out: Activity
A549 [21] = experiment: Growth inhibition of human A549/ATCC cells assessed as cell growth at 10^-7 M by sulforhodamine B assay; details: read-out: Activity
MCF7 [22] = experiment: Growth inhibition of human MCF7 cells assessed as cell growth at 10^-8 M by sulforhodamine B assay; details: read-out: Activity
PC-3 [23] = experiment: Growth inhibition of human PC3 cells assessed as cell growth at 10^-8 M by sulforhodamine B assay; details: read-out: Activity
SN12C [24] = experiment: Growth inhibition of human SN12C cells assessed as cell growth at 10^-8 M by sulforhodamine B assay; details: read-out: Activity
[25] = read-out: LC50 (the source's name)
[26] = read-out: pLC50 (the source's name) (converted)

Compound `C/C=C(/C)C(=O)O[C@@H]1CC(C)(C)C[C@H]2C3=CC[C@@H]4[C@@]5(C)CC[C@H](O)C(C)(C)[C@@H]5CC[C@@]4(C)[C@]3(C)CC[C@@]12C(=O)O` [Reduced Lantadene A] has a GI50 (COLO 205 [1]; read-out: GI50) of 2.11 µM, a GI50 (COLO 205 [1]; read-out: pGI50 (converted)) of 2.09 µM and a GI50 (SR; read-out: GI50) of 2.14 µM. The CC50 (SR; [25]) was > 100 µM, the TGI (SR; read-out: TGI) was 5.63 µM and the GI50 (SR; read-out: pGI50 (converted)) was 2.14 µM. The CC50 (SR; [26]) was > 100 µM, the TGI (SR; read-out: pTGI (converted)) was 5.62 µM and the growth at 0.01 µM (IGROV-1) was 109%. For the same compound, the growth at 0.01 µM (HT-29) was 104%, the growth at 0.01 µM (HCT-15 [2]) was 100% and the growth at 0.01 µM (A549 [3]) was 93%. The GI50 ([4]; read-out: GI50) was 2.17 µM, the CC50 [4, 25] was > 100 µM and the TGI ([4]; read-out: TGI) was 5 µM. For the same compound, the GI50 ([4]; read-out: pGI50 (converted)) was 2.19 µM, the CC50 [4, 26] was > 100 µM and the TGI ([4]; read-out: pTGI (converted)) was 5.01 µM. For the same compound, the GI50 (OVCAR-8 [5]; read-out: GI50) was 1.92 µM, the TGI (OVCAR-8 [5]; read-out: TGI) was 3.87 µM and the GI50 (OVCAR-8 [5]; read-out: pGI50 (converted)) was 1.91 µM. For the same compound, the TGI (OVCAR-8 [5]; read-out: pTGI (converted)) was 3.89 µM, the GI50 (UACC-257 [6]; read-out: GI50) was 2.13 µM and the CC50 (UACC-257 [6]; [25]) was 19.3 µM. It also gave a TGI (UACC-257 [6]; read-out: TGI) of 4.93 µM, a GI50 (UACC-257 [6]; read-out: pGI50 (converted)) of 2.14 µM and a CC50 (UACC-257 [6]; [26]) of 19.5 µM. The TGI (UACC-257 [6]; read-out: pTGI (converted)) was 4.9 µM, the GI50 (MDA-MB-435; read-out: GI50) was 2.21 µM and the CC50 (MDA-MB-435; [25]) was > 100 µM. For the same compound, the TGI (MDA-MB-435; read-out: TGI) was 5.9 µM, the GI50 (MDA-MB-435; read-out: pGI50 (converted)) was 2.19 µM and the CC50 (MDA-MB-435; [26]) was > 100 µM. For the same compound, the TGI (MDA-MB-435; read-out: pTGI (converted)) was 5.89 µM, the growth at 100 µM (MDA-MB-468) was -86% and the growth at 100 µM (MCF7 [7]) was -39%. For the same compound, the growth at 100 µM (SN12C [8]) was -51%, the growth at 100 µM (CAKI-1) was -65% and the growth at 100 µM (SNB-75) was -47%. It also gave a growth at 100 µM (SNB-19) of -40%, a growth at 100 µM (SW-620) of -32% and a growth at 100 µM (KM12 [9]) of -29%. The growth at 100 µM (NCI-H322M) was -71%, the growth at 100 µM (HOP-92 [10]) was -73% and the growth at 1 µM (PC-3 [11]) was 70%. For the same compound, the growth at 1 µM (ACHN [12]) was 87%, the growth at 1 µM (OVCAR-8 [13]) was 97% and the growth at 1 µM (UACC-62) was 78%. It also gave a growth at 1 µM (UACC-257 [14]) of 95%, a growth at 1 µM (SK-MEL-28) of 90% and a growth at 1 µM (SF-295) of 81%. It also gave a growth at 1 µM (KM12 [15]) of 69%, a growth at 1 µM (NCI-H226) of 83% and a growth at 1 µM (HOP-92 [16]) of 73%. It also gave a growth at 1 µM (K562) of 85%, a growth at 0.1 µM (TK-10) of 108% and a growth at 0.1 µM (SN12C [17]) of 92%. It also gave a growth at 0.1 µM (ACHN [18]) of 101%, a growth at 0.1 µM (SF-268) of 106% and a growth at 0.1 µM (HCT-116) of 95%. For the same compound, the growth at 0.1 µM (HCT-15 [19]) was 101%, the growth at 0.1 µM (COLO 205 [20]) was 107% and the growth at 0.1 µM (NCI-H460) was 99%. For the same compound, the growth at 0.1 µM (A549 [21]) was 90%, the growth at 0.01 µM (MCF7 [22]) was 95% and the growth at 0.01 µM (PC-3 [23]) was 92%. For the same compound, the growth at 0.01 µM (SN12C [24]) was 96%.

Reference: ChEMBL document CHEMBL2413072, “Synthesis and in vitro anticancer studies of novel C-2 arylidene congeners of lantadenes” (2013)
